Source: patent US20070161696A1, “Methods of using and compositions comprising selective cytokine inhibitory drugs for treatment, modification and management of pain” (priority 2004, published 2007)

Experiments:
[1] = Cardiovascular and respiratory function in anesthetized dogs; assay type: in vivo; settings: anesthetized Beagle dogs; ascending doses 400, 800 and 1,200 mg/kg/day by infusion through the jugular vein; compared to vehicle control group
Experimental: The effects of 3-(3,4-dimethoxy-phenyl)-3-(1-oxo-1,3-dihydro-isoindol-2-yl)-propionamide on cardiovascular and respiratory function are investigated in anesthetized dogs. Two groups of Beagle dogs (2/sex/group) are used. One group receives three doses of vehicle only and the other receives three ascending doses of 3-(3,4-dimethoxy-phenyl)-3-(1-oxo-1,3-dihydro-isoindol-2-yl)-propionamide (400, 800, and 1,200 mg/kg/day). In all cases, doses of 3-(3,4-dimethoxy-phenyl)-3-(1-oxo-1,3-dihydro-isoindol-2-yl)-propionamide or vehicle are successively administered via infusion through the jugular vein separated by intervals of at least 30 minutes.
The cardiovascular and respiratory changes induced by 3-(3,4-dimethoxy-phenyl)-3-(1-oxo-1,3-dihydro-isoindol-2-yl)-propionamide are minimal at all doses when compared to the vehicle control group. 5.3 Studies Using Animal Pain Models

TNF-α production = experiment: Inhibition of TNF-α production following LPS-stimulation of human PBMC and human whole blood, in vitro; assay type: cell-based; settings: in vitro studies; compared with thalidomide
Experimental: In a specific embodiment, the pharmacological properties of 3-(3,4-dimethoxy-phenyl)-3-(1-oxo-1,3-dihydro-isoindol-2-yl)-propionamide are characterized in in vitro studies. Studies examine the effects of the compound on the production of various cytokines. Inhibition of TNF-α production following LPS-stimulation of human PBMC and human whole blood by the compound is investigated in vitro. The IC50's of the compound for inhibiting production of TNF-α are measured. […] The pharmacological effects of 3-(3,4-dimethoxy-phenyl)-3-(1-oxo-1,3-dihydro-isoindol-2-yl)-propionamide may derive from its action as an inhibitor of the generation of inflammatory cytokines.

[2] = Clinical study in pain patients with upper extremity CRPS; assay type: in vivo, human; settings: 1,200 mg as a continuous oral daily dose
Experimental: Selective cytokine inhibitory drugs of the invention such as 3-(3,4-dimethoxy-phenyl)-3-(1-oxo-1,3-dihydro-isoindol-2-yl)-propionamide are administered in an amount of 400 to 1,200 mg per day to patients with pain syndromes for three to six months. A baseline evaluation is performed for the effect of the drug treatment on pain intensity, impact of pain on activities of daily living, and consumption of other pain medications.
In a specific embodiment, clinical studies are performed in pain patients who have upper extremity CRPS that has not responded to conventional physical therapy and has been present for at least one year. In the early course of their diseases, patients have clear evidence of autonomic dysfunction with formal autonomic testing (Quantitative sudomotor axon reflex test (QSART), resting sweat output, and thermography). If this is unavailable, documentation of clinical signs indicates autonomic dysfunction (changes in hydration, temperature, skin, nail or hair growth) along with symptoms of allodynia and swelling. […] Responses are assessed using standard pain scales, e.g., Numeric Pain Scale Assessment (VAS) for pain, quality of life using the McGill Index and objective signs in clinical examination such as a visible reduction of swelling, sweating, discolorations in skin color, temperature changes, changes in skin, hair and nail growth, and fine motor movements. […]

For `COc1ccc(C(CC(N)=O)N2Cc3ccccc3C2=O)cc1OC` (stereo not drawn) [3-(3,4-Dimethoxy-phenyl)-3-(1-oxo-1,3-dihydro-isoindol-2-yl)-propionamide], the “cardiovascular and respiratory changes” value [1] was “minimal”, the “pharmacological activity profile, potency relative to thalidomide” value (TNF-α production) was “five to fifty times more potent than thalidomide” and the tolerability [2] was “well-tolerated”.
